{
  "source": "patent US20140100156A1",
  "about": "(SANOFI, priority 2012, published 2014)",
  "key": {"[1]": {"system": "female leptin-receptor deficient diabetic db/db mice", "experiment": "Acute effect on blood glucose in fed female db/db mice", "assay_type": "in vivo", "excerpt": "Female BKS.Cg-m+/+Leprdb/J (db/db) and BKS.Cg-m+/+Leprdb/+ (lean control) mice were obtained from Charles River Laboratories, Germany, at an age of 9-10 weeks. The animals were housed in groups in a specific pathogen-free barrier facility on a 12-h light/dark cycle with free access to water and rodent-standard chow. After 1 week of acclimatization, blood samples were drawn from the tail without anaesthesia and blood glucose (method: d-glucose hexokinase, hemolysate, AU640 Beckman Coulter) and HbA1c level (method: hemolysate, Cobas6000 c501, Roche Diagnostics, Germany) were determined.\nDb/db mice were stratified to treatment groups (n=8), so that each group had similar baseline blood glucose and HbA1c levels.\n1) Acute effect on blood glucose in fed db/db mice: initial blood samples were taken just before first administration (s.c.) of vehicle (phosphate buffer solution) or exendin-4 derivatives at doses of 3, 10, and 100 μg/kg (dissolved in phosphate puffer), respectively. The volume of administration was 5 mL/kg. The animals had access to water and chow during the experiment, food consumption was determined at all time points of blood sampling. Blood glucose levels were measured at t=0.5 h, t=1 h, t=2 h, t=4 h, t=6 h, t=8 h, and t=24 h. Blood sampling was performed by tail incision without anaesthesia.\nStatistical analyses were performed with Everstat 6.0 by repeated measures two-way ANOVA and Dunnetts post-hoc analyses. Differences versus vehicle-treated db/db control mice were considered statistically significant at the p<0.05 level.\nAfter blood sampling to determine the blood glucose baseline level, fed diabetic female db/db mice were administered 3, 10 or 100 μg/kg of SEQ ID NO: 97 or phosphate buffered solution (vehicle-treated db/db control) subcutaneously. At predefined time points, more blood samples were taken to measure blood glucose and generate the blood glucose profile over 24 h. […]"}, "female NMRI-mice": {"system": "female NMRI-mice", "experiment": "Gastric emptying and intestinal passage in mice", "assay_type": "in vivo", "procedure": "Female NMRI-mice of a body weight between 20 and 30 g were used. Mice were adapted to housing conditions for at least one week.\nMice were overnight fasted, while water remained available all the time. On the study day, mice were weighed, single-caged and allowed access to 500 mg of feed for 30 min, while water was removed. At the end of the 30 min feeding period, remaining feed was removed and weighed. 60 min later, a coloured, non-caloric bolus was instilled via gavage into the stomach. The test compound/reference compound or its vehicle in the control group was administered subcutaneously, to reach Cmax when coloured bolus was administered. After another 30 min, the animals were sacrificed and the stomach and the small intestine prepared. The filled stomach was weighed, emptied, carefully cleaned and dried and reweighed. The calculated stomach content indicated the degree of gastric emptying. The small intestine was straightened without force and measured in length. Then the distance from the gastric beginning of the gut to the tip of the farthest travelled intestinal content bolus was measured. The intestinal passage was given as relation in percent of the latter distance and the total length of the small intestine.\nStatistical analyses were performed with Everstat 6.0 by 1-way-ANOVA, followed by Dunnetts or Newman-Keuls as post-hoc test, respectively. Differences were considered statistically significant at the p<0.05 level. As post hoc test Dunnet's Test was applied to compare versus vehicle control, only. Newman-Keul's Test was applied for all pairwise comparisons (i.e. versus vehicle and reference groups).\n30 min later, the assessment of stomach contents and intestinal passage was done (FIG. 1a, b).\nIn another study, female NMRI-mice, weighing on average 25-30 g, were administered subcutaneously 0.02 and 0.002 mg/kg of SEQ ID NO: 97 or phosphate buffered saline (vehicle control), 30 min prior to the administration of the coloured bolus. 30 min later, the assessment of stomach contents and intestinal passage was done (FIG. 1c, d)."}, "[2]": {"settings": "0.002 mg/kg s.c., versus PBS-control (second study)"}, "[3]": {"settings": "0.02 mg/kg s.c., study with reference compound Liraglutide, versus vehicle"}, "[4]": {"settings": "0.02 mg/kg s.c., versus PBS-control (second study)"}},
  "data": [
    {"substance": "SEQ ID NO: 97: exendin-4 derivative, K(γE-x53) in position 14 (HXQGTFTSDLSKQKDSRRAQDFIEWLKNGGPSSGAPPPS; K14 side chain γE-x53; Exendin-4-analogue)", "values": [
      {"measurement": "duration of decrease in blood glucose compared to db/db control mice", "setting": "[1]; high dose (100 μg/kg s.c.)", "result": "> 24", "unit": "h"},
      {"measurement": "duration of decrease in blood glucose compared to db/db control mice", "setting": "[1]; low dose (3 μg/kg s.c.)", "result": "up to 8 h"},
      {"measurement": "duration of decrease in blood glucose compared to db/db control mice", "setting": "[1]; medium dose (10 μg/kg s.c.)", "result": "up to 8 h"},
      {"measurement": "gastric content increased by", "setting": "female NMRI-mice; [2]", "result": 47, "unit": "%"},
      {"measurement": "intestinal passage reduced by", "setting": "female NMRI-mice; [2]", "result": 63, "unit": "%"},
      {"measurement": "gastric content increased by", "setting": "female NMRI-mice; [3]", "result": 90, "unit": "%"},
      {"measurement": "intestinal passage reduced by", "setting": "female NMRI-mice; [3]", "result": 67, "unit": "%"},
      {"measurement": "gastric content increased by", "setting": "female NMRI-mice; [4]", "result": 37, "unit": "%"},
      {"measurement": "intestinal passage reduced by", "setting": "female NMRI-mice; [4]", "result": 43, "unit": "%"}
    ]}
  ]
}
